In PubChem BioAssay (NCI):
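Protocol summary: plate cells (96-well), add compound at 5 concentrations, incubate 48 h, interpolate endpoints linearly. GI50 = concentration required for 50% inhibition of growth. TGI denotes the concentration required for complete inhibition of growth.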

Experiments:
Assay in all cases: DTP human tumour cell line panel, 48 h
LOX IMVI melanoma = system: LOX IMVI melanoma
EKVX NSCLC = system: EKVX NSCLC
OVCAR-5 ovarian = system: OVCAR-5 ovarian
ACHN renal = system: ACHN renal
RPMI-8226 leukemia = system: RPMI-8226 leukemia
HCT-15 colon = system: HCT-15 colon
SK-MEL-5 melanoma = system: SK-MEL-5 melanoma
UACC-257 melanoma = system: UACC-257 melanoma
U251 CNS = system: U251 CNS
UACC-62 melanoma = system: UACC-62 melanoma

SMILES: CC(CN1CC(=O)NC(=O)C1)N1CC(=O)NC(=O)C1 (stereo not given)
- TGI (LOX IMVI melanoma): > 750 µM
- TGI (EKVX NSCLC): > 750 µM
- TGI (OVCAR-5 ovarian): 749 µM
- TGI (ACHN renal): > 750 µM
- TGI (RPMI-8226 leukemia): > 750 µM
- TGI (HCT-15 colon): > 750 µM
- TGI (SK-MEL-5 melanoma): > 750 µM
- TGI (UACC-257 melanoma): > 750 µM
- TGI (U251 CNS): > 750 µM
- TGI (UACC-62 melanoma): > 686 µM

SMILES: O=C(O)/C=C/c1ccc[c]([Sb](=[O])([OH])[OH])c1
- GI50 (LOX IMVI melanoma): > 100 µM
- TGI (LOX IMVI melanoma): > 100 µM
- GI50 (EKVX NSCLC): > 100 µM
- TGI (EKVX NSCLC): > 100 µM
- GI50 (OVCAR-5 ovarian): > 100 µM
- TGI (OVCAR-5 ovarian): > 100 µM
- GI50 (ACHN renal): > 100 µM
- TGI (ACHN renal): > 100 µM
- GI50 (RPMI-8226 leukemia): > 100 µM
- TGI (RPMI-8226 leukemia): > 100 µM
- GI50 (HCT-15 colon): > 100 µM
- TGI (HCT-15 colon): > 100 µM
- GI50 (SK-MEL-5 melanoma): > 100 µM
- TGI (SK-MEL-5 melanoma): > 100 µM
- GI50 (UACC-257 melanoma): > 100 µM
- TGI (UACC-257 melanoma): > 100 µM
- GI50 (U251 CNS): > 100 µM
- TGI (U251 CNS): > 100 µM
- GI50 (UACC-62 melanoma): > 100 µM
- TGI (UACC-62 melanoma): > 100 µM

SMILES: CCO/C(CCn1[nH]c(=O)c(Cl)c(Cl)c1=O)=N\NC(=O)C(=O)NN
- TGI (LOX IMVI melanoma): > 100 µM
- TGI (EKVX NSCLC): > 100 µM
- TGI (OVCAR-5 ovarian): > 100 µM
- TGI (ACHN renal): > 100 µM
- TGI (RPMI-8226 leukemia): > 100 µM
- TGI (HCT-15 colon): > 100 µM
- TGI (SK-MEL-5 melanoma): > 100 µM
- TGI (UACC-257 melanoma): > 100 µM
- TGI (U251 CNS): > 100 µM
- TGI (UACC-62 melanoma): > 100 µM

SMILES: COc1ccc(C(C#N)=C2C=CC(=NO)C=C2)cc1
- GI50 (LOX IMVI melanoma): 1.91 µM
- TGI (LOX IMVI melanoma): 4.5 µM
- GI50 (EKVX NSCLC): 17.6 µM
- TGI (EKVX NSCLC): 32.7 µM
- GI50 (OVCAR-5 ovarian): 19.5 µM
- TGI (OVCAR-5 ovarian): 34.3 µM
- GI50 (ACHN renal): 8.63 µM
- TGI (ACHN renal): 21.1 µM
- GI50 (RPMI-8226 leukemia): 3.2 µM
- TGI (RPMI-8226 leukemia): 17.9 µM
- GI50 (HCT-15 colon): 11.7 µM
- TGI (HCT-15 colon): 26.1 µM
- GI50 (SK-MEL-5 melanoma): 4.34 µM
- TGI (SK-MEL-5 melanoma): 17.2 µM
- GI50 (UACC-257 melanoma): 10.5 µM
- TGI (UACC-257 melanoma): 30.6 µM
- GI50 (U251 CNS): 6.46 µM
- TGI (U251 CNS): 19.4 µM
- GI50 (UACC-62 melanoma): 8.34 µM
- TGI (UACC-62 melanoma): 21.9 µM

SMILES: CCCCCCCN(CCCCCCC)C(=N)c1ccnc2ccccc12
- GI50 (LOX IMVI melanoma): 1.42 µM
- TGI (LOX IMVI melanoma): 2.82 µM
- GI50 (EKVX NSCLC): 1.59 µM
- TGI (EKVX NSCLC): 3.15 µM
- GI50 (OVCAR-5 ovarian): 1.8 µM
- TGI (OVCAR-5 ovarian): 3.6 µM
- GI50 (ACHN renal): 1.62 µM
- TGI (ACHN renal): 3.07 µM
- GI50 (RPMI-8226 leukemia): 1.65 µM
- TGI (RPMI-8226 leukemia): 4.21 µM
- GI50 (HCT-15 colon): 1.59 µM
- TGI (HCT-15 colon): 3.04 µM
- GI50 (SK-MEL-5 melanoma): 1.51 µM
- TGI (SK-MEL-5 melanoma): 2.96 µM
- GI50 (UACC-257 melanoma): 1.72 µM
- TGI (UACC-257 melanoma): 3.5 µM
- GI50 (U251 CNS): 1.66 µM
- TGI (U251 CNS): 3.11 µM
- GI50 (UACC-62 melanoma): 1.52 µM
- TGI (UACC-62 melanoma): 3.05 µM

SMILES: Cc1ccc(NC(=O)C(=O)C(C(=O)c2ccc3ccccc3c2)C2OC(=O)c3ccccc32)c(C)c1 (stereo not given)
- TGI (LOX IMVI melanoma): 32.2 µM
- TGI (EKVX NSCLC): 52 µM
- TGI (OVCAR-5 ovarian): 36.5 µM
- TGI (ACHN renal): 60.4 µM
- TGI (RPMI-8226 leukemia): 40.4 µM
- TGI (HCT-15 colon): 40.2 µM
- TGI (SK-MEL-5 melanoma): 24 µM
- TGI (UACC-257 melanoma): 41.4 µM
- TGI (U251 CNS): 17.2 µM
- TGI (UACC-62 melanoma): 17.3 µM

SMILES: CC(C)=O.O=C([O-])C(F)(F)F.O=C([O-])C(F)(F)F.O=C([O-])C(F)(F)F.O=C([O-])C(F)(F)F.[Rh+2].[Rh+2]
- GI50 (LOX IMVI melanoma): 53.3 µM
- TGI (LOX IMVI melanoma): > 100 µM
- GI50 (EKVX NSCLC): 47.2 µM
- TGI (EKVX NSCLC): > 100 µM
- GI50 (OVCAR-5 ovarian): > 100 µM
- TGI (OVCAR-5 ovarian): > 100 µM
- GI50 (ACHN renal): 50.5 µM
- TGI (ACHN renal): > 100 µM
- GI50 (RPMI-8226 leukemia): 33.2 µM
- TGI (RPMI-8226 leukemia): > 100 µM
- GI50 (HCT-15 colon): > 100 µM
- TGI (HCT-15 colon): > 100 µM
- GI50 (SK-MEL-5 melanoma): > 100 µM
- TGI (SK-MEL-5 melanoma): > 100 µM
- GI50 (UACC-257 melanoma): > 100 µM
- TGI (UACC-257 melanoma): > 100 µM
- GI50 (U251 CNS): 47.5 µM
- TGI (U251 CNS): > 100 µM
- GI50 (UACC-62 melanoma): > 100 µM
- TGI (UACC-62 melanoma): > 100 µM
